# Assay results published in patent publication US10806147B2, “Treatment method for a hydrocarbon-containing system using a biocide” (RHODIA OPERATIONS, priority 2011, dated 2020).
# Like-named read-outs stand apart in the source and are kept apart here.
# Tested on: sulphate-reducing prokaryotes (SRP)
# Description: The bioreactor used was constructed from titanium; this construction eliminated the risk of any production of iron sulphides through corrosion, which in turn would react with injected THPS. […] The column was packed with low-iron sand (Fisher, UK) with a glass fibre plug at the base to prevent the draining of sand during filling. The column fittings (injection and production pipework) were constructed from 316 stainless steel (Swagelok).
# The column was maintained at 1000 psig (70 barg) and 24° C.±1° C. The pressure was held between the pump head and the proportional release valve. The use of 1-way valves in the injection head permitted disconnection and maintenance of the pump without depressurisation of the column.
# The pump used was a high-pressure liquid chromatography pump (PerkinElmer Series 100). The pump was operated in a continuous fashion at an injection rate of 1 mL/min, injecting into the head of the bioreactor.
# Injection fluid was prepared daily on workdays, with three days of fluid prepared on Friday to cover the weekend. During the week, a single pump was used on a continuous basis. Over the weekend, three pumps were used, cycling in three hour injection windows. The injection fluid was stored in a polyethylene terephthalate (PET) nitrogen-pressurised vessel at 2° C.±1° C.
# The North Sea seawater used throughout the study was collected from Bridlington, Yorkshire on a quarterly basis. It was de-oxygenated through nitrogen sparging over a 48 hour period. Metabolisable carbon was added to the seawater in the form of volatile fatty acids (VFA) in the ratio of 100 acetate:10 propionate:1 butyrate by weight. Acetate and propionate were added as salt in order to avoid acidification of the injection fluid, whilst butyrate was added as the acid. The pH of the injection fluid was between 7.5 and 8 before the addition of THPS. The VFA totalled 111 mg/L, which, if converted entirely to sulphide (i.e. none used for biomass growth), should permit the production of 67 mg/L H2S.
# The bioreactor was inoculated using a mixed consortia of prokaryotes obtained from North Sea seawater and North Sea oil reservoirs. Rawwater Engineering Company Limited (RECL) maintained a mixed consortia of sulphate-reducing prokaryotes (SRP) in bioreactors under the experimental conditions required for the project (24° C., 1000 psig). These bioreactors were used solely for inoculation purposes. Both bioreactors increased the chances of successfully inoculating new bioreactors, by limiting the changes in environmental conditions the microbes were subjected to and thus limiting stress. The column was inoculated with microbes, shut-in for a fortnight and operated under batch flow conditions (140 mL fluid per day in equally spaced thirty-minute injection windows) until SRP were known to be established through the production of hydrogen sulphide.
# Effluent samples were collected on a daily basis onto zinc acetate. This reacted with the volatile hydrogen sulphide to form stable zinc sulphide precipitate, which permitted analysis at a later time. All samples were analysed within six hours of collection. The samples were analysed through the standard methylene blue colourimetric procedure, which was calibrated monthly against the iodometric sulphide method.
# Three trials were conducted: • Trial 1—Starting with a dose of 30 mg/L THPS, the dose concentration of THPS was reduced in 10 mg/L steps until sulphide recovery was observed. […] This indicated the minimum starting concentration of THPS required to convert the SRP from normal activity to biostasis.
substance,measurement,setting,value
Tetrakis(hydroxymethyl)phosphonium sulphate [THPS],"period of continued low hydrogen sulphide after removal of THPS, before gradual rise","Trial 1, after 86 days total biocide injection, THPS removed entirely",25 to 27 days
same,increase in sulphide during dosing,"Trial 1, dose reduced to 10 mg/L, 14 days",no significant increase in sulphide was recorded
same,biological activity and sulphide production on introduction of THPS,"Trial 1, pre-soured bioreactor, 30 mg/L active THPS (60 mg/L Tolcide PS50A, incl. penetrant), continuous, 24 °C, 1000 psig",collapse in biological activity and sulphide production to sub-mg/L concentrations
same,biological activity and effluent sulphide on introduction of THPS,"Trial 2, 30 mg/L THPS plus penetrant, continuous",immediate collapse of biological activity and effluent sulphide
same,effluent sulphide during reduced dosing,"Trial 2, 20 and 10 mg/L THPS, biocide injected 91 days in total",remained suppressed
same,biostasis of the column,"Trial 3, 5 mg/L THPS plus penetrant, slow inhibited increase in effluent sulphide",insufficient to keep the entire column under biostasis
same,effluent sulphide,"Trial 3, dose increased to 20 mg/L THPS",the effluent sulphide collapsed and remained low
same,effluent sulphide,"Trial 3, dose increased via 10 mg/L to 15 mg/L THPS",appeared to stabilise the effluent sulphide
same,growth of the SRP population,"Trial 3, sour column, 5 mg/L THPS plus penetrant, continuous",rapidly halted the growth of the SRP population
